{"source": "paper PMC11882969", "about": "(Nature Communications, 2025)", "key": {"[1]": {"settings": "relative to 100 at 0 min", "description": "(§1) The reactions were stopped by adding 240 μL 90% acetonitrile containing internal standard with subsequent plasma proteins sedimentation by centrifuging at 5796 g for 5 min. Supernatants were analyzed by the HPLC system coupled with a tandem mass spectrometer. The percentage of the test compounds remaining after incubation in plasma and their half-lives (T1/2) were calculated."}, "[2]": {"settings": "relative to 100 at 0 min", "remark": "listed apart in the source", "description": "(§2) Microsomal incubations were carried out in 96-well plates in 5 aliquots of 30 μL each (one for each time point). […] In the control reactions, the NADPH-cofactor system was substituted with phosphate buffer. […] Five time points over 40 min were analyzed. The reactions were stopped by adding 5 volumes of acetonitrile with internal standard to incubation aliquots, followed by protein sedimentation by centrifuging at 4869 g for 5 min. Each reaction was performed in duplicates. Supernatants were analyzed using the HPLC system coupled with a tandem mass spectrometer. The elimination constant (kel), half-life (T1/2), and intrinsic clearance (Clint) were determined in a plot of ln(AUC) versus time, using linear regression analysis."}, "[3]": {"tested_on": "P-gp (human MDR1)", "experiment": "in vitro", "settings": "dog, MDCK-MDR1, pH 7.4"}, "[4]": {"tested_on": "mice", "experiment": "Conditioned place preference", "type": "in vivo, mouse", "method": "Briefly, mice were first habituated to the test apparatus, twice, and their preference for each chamber recorded for 30 min (Pretest). Two conditioning days followed in which mice received the vehicle control or the compound, and 30 min later restricted for 30 min in the preferred or non-preferred chamber, respectively. On day 5 (Test day), mice were allowed to roam freely between the 3 chambers of the apparatus and their preference for each chamber recorded for 30 min. To calculate the CPP score, we subtracted the time spent in each chamber of the box on the Pretest day from that of the Test day (CPP score = Test - Pretest)."}, "[5]": {"experiment": "in vitro", "settings": "mouse, plasma", "description": "as §1"}, "[6]": {"tested_on": "mice", "experiment": "Hargreaves radiant heat test", "type": "in vivo, mouse", "settings": "for Dose response, individual animals (FigS11a): test not printed on the sheet"}, "[7]": {"tested_on": "mice", "experiment": "Open field test", "type": "in vivo, mouse", "method": "Thirty min after i.p. injection, mice were placed in the center of a round open-field (2 feet diameter) and their exploratory behavior recorded over the next 15 min. Distance traveled was used to represent open field behavior."}, "[8]": {"experiment": "in vitro", "settings": "mouse, microsomes, pH 7.4", "description": "as §2"}, "[9]": {"settings": "mouse plasma, 1.0 µM", "description": "Compounds were added to one chamber and the same volume of PBS buffer pH 7.4 to the other chamber. A standard solution was created by mixing an aliquot of spiked plasma with blank buffer without dialysis. […] The stability samples were immediately diluted with acetonitrile and stored at 4 °C until LC-MS/MS analysis. All samples were diluted 5-fold with 90% acetonitrile with internal standard with subsequent plasma proteins sedimentation by centrifuging at 5,796 g for 5 min. Supernatants were analyzed using HPLC system coupled with tandem mass spectrometer. The percentage of plasma protein-bound compound, recovery and stability were calculated using following equations:7 ProteinBinding=1−arearatioinbuffer/arearatioinplasma×100 8 Recovery=arearatioinbuffer+arearatioinplasma/arearatioinstabilitysample×100 9 Stability=arearatioinrecoverysample/arearatioinstabilitysample×100"}, "[10]": {"tested_on": "mice", "experiment": "CFA inflammatory pain model", "type": "in vivo, mouse", "method": "The CFA model of chronic inflammation was induced as described previously. Briefly, CFA (Sigma) was diluted 1:1 with saline and vortexed for 30 min. When fully suspended, we injected 20 μL of CFA into one hindpaw. Heat thresholds were measured before the injection (baseline) and 3 days after the injection using the Hargreaves test."}, "[11]": {"biological_target": "T1, hCB1 (Homo sapiens, UniProt P21554)", "T1 sequence (P21554 whole entry)": "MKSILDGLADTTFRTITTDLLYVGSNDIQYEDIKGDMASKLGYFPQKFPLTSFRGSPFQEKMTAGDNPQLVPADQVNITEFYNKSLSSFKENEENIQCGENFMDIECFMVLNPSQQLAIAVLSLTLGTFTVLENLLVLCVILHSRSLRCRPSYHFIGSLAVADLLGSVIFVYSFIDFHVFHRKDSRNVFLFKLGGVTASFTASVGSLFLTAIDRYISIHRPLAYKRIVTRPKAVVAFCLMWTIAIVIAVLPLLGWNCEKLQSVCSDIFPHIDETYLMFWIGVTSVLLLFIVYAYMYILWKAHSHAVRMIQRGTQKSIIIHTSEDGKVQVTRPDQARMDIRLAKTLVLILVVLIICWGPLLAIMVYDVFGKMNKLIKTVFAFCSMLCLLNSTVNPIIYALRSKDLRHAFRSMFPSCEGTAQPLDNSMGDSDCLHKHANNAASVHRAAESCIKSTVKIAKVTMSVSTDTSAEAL", "experiment": "Cerep HTRF cAMP inhibition assay, hCB1 CHO-K1", "type": "cell-based", "set-up": "host or cells: HEK293SL cells, transient PEI transfection", "description": "The hCB1/2 CHO-K1 cells (ATCC: CCL-61) are suspended in HBSS buffer (Invitrogen) complemented with 20 mM HEPES (pH 7.4), then distributed in microplates at a density of 5.103 cells/well in the presence of either of the following: HBSS (basal control), the reference agonist (stimulated control) or the test compounds. […] Following 30 min incubation at 37 °C, the cells are lysed, and the fluorescence acceptor (D2-labeled cAMP) and fluorescence donor (anti-cAMP antibody labeled with europium cryptate) are added. […] Each measurement was done in triplicate."}, "[12]": {"biological_target": "T1, hCB1", "experiment": "DiscoverX PathHunter β-arrestin-2 recruitment;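 also: CHO-K1 cells expressing hCB1, agonist mode, compound exposure with 1% vehicle, chemiluminescence read-out of the β-arrestin-2 recruitment signal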", "type": "cell-based"}}, "note": "“And” between values parts separate entries of the source, which are not always exact repeats. Identical values can stand only once. Like-named read-outs stand apart in the source and are kept apart here.", "data": [{"smiles": "COC(=O)[C@@](C)(NC(=O)c1cc(C)n(-c2cccc(C(F)(F)F)c2)n1)c1cccs1", "note": "[‘1350]", "values": [{"measurement": "Stability time course, Mean (FigS10e)", "setting": "[1]; Time 0 min", "value": 100}, {"measurement": "Stability time course, Mean (FigS10e)", "setting": "[1]; Time 20 min", "value": 84.0951}, {"measurement": "Stability time course, Mean (FigS10e)", "setting": "[1]; Time 40 min", "value": 66.362}, {"measurement": "Stability time course, Mean (FigS10e)", "setting": "[1]; Time 60 min", "value": 47.7148}, {"measurement": "Stability time course, Mean (FigS10e)", "setting": "[1]; Time 120 min", "value": 13.638}, {"measurement": "Stability time course, Mean (FS10f)", "setting": "[2]; Time 0 min", "value": 100}, {"measurement": "Stability time course, Mean (FS10f)", "setting": "[2]; Time 7 min", "value": 13.0354}, {"measurement": "Stability time course, Mean (FS10f)", "setting": "[2]; Time 15 min", "value": 0.461}, {"measurement": "Stability time course, Mean (FS10f)", "setting": "[2]; Time 25 min", "value": 0.1608}, {"measurement": "Stability time course, Mean (FS10f)", "setting": "[2]; Time 40 min", "value": 0.1274}, {"measurement": "efflux ratio at 90 min, 10 μM", "setting": "[3]", "value": 1.3}, {"measurement": "Individual animal scores (FigS11e)", "setting": "[4]; 0.2 mg/kg, test not printed on the sheet", "value": "289 and 48 and 256 and -101 and 11 and -145 and -65 and -179"}, {"measurement": "conditioned place preference", "setting": "[4]; drug-paired vs vehicle-paired chamber", "value": "does not induce preference"}, {"measurement": "half-life at 1 µM", "setting": "[5]", "value": 41, "unit": "min"}, {"measurement": "remaining at 20 min, 1 µM", "setting": "[5]", "value": 84, "unit": "%"}, {"measurement": "remaining at 40 min, 1 µM", "setting": "[5]", "value": 66, "unit": "%"}, {"measurement": "remaining at 1 h, 1 µM", "setting": "[5]", "value": 48, "unit": "%"}, {"measurement": "remaining at 2 h, 1 µM", "setting": "[5]", "value": 14, "unit": "%"}, {"measurement": "Dose response, individual animals (FigS11a)", "setting": "[6]; Dose 0.05 mg/kg", "value": "70.2102 and 59.9464 and 116.769 and 106.654 and 53.8477"}, {"measurement": "Dose response, individual animals (FigS11a)", "setting": "[6]; Dose 0.1 mg/kg", "value": "178.501 and 115.43 and 147.263 and 156.486"}, {"measurement": "Dose response, individual animals (FigS11a)", "setting": "[6]; Dose 0.2 mg/kg", "value": "166.452 and 178.501"}, {"measurement": "lowest dose with significantly increased latency, Hargreaves", "setting": "[6]; i.p., 30 min after injection", "value": 0.1, "unit": "mg/kg"}, {"measurement": "open field locomotion (Figure6a), individual animals", "setting": "[7]; Dose 0.2 mg/kg", "value": "12688.4 and 110206 and 39857.9 and 128163 and 83978.8"}, {"measurement": "open field locomotion (Figure6a), individual animals", "setting": "[7]; Dose 0.5 mg/kg", "value": "61622.6 and 27571.5 and 19916.8 and 94738.4 and 50932.2"}, {"measurement": "dose showing locomotor deficits, open field", "setting": "[7]; i.p.", "value": 0.2, "unit": "mg/kg"}, {"measurement": "remaining at 40 min, 2 µM", "setting": "[8]", "value": 100, "unit": "%"}, {"measurement": "Mean % of bound compound", "setting": "[9]", "value": 94, "unit": "%"}, {"measurement": "Stability", "setting": "[9]; 5 h", "value": 11, "unit": "%"}, {"measurement": "effect on paw withdrawal latency after CFA", "setting": "[10]; 0.2 mg/kg i.p.", "value": "increasing paw withdrawal latencies to well-above pre-CFA baseline thresholds"}, {"measurement": "CFA inflammatory pain response normalised to baseline (Figure5a), individual animals", "setting": "[10]; 0.2 mg/kg, CFA-treated mice", "value": "134.669 and 178.501 and 55.3352 and 183.627 and 40.7039 and 122.724 and 119"}]}, {"smiles": "COC(=O)C(C)(NC(=O)c1cc(C)n(-c2cccc(C(F)(F)F)c2)n1)c1cccs1", "note": "(stereo not drawn) [‘4042]", "values": [{"measurement": "Emax", "setting": "[11]; CHO-K1", "value": 96, "unit": "%"}, {"measurement": "Cerep cAMP pEC50", "setting": "[11]; hCB1", "value": 11.1}, {"measurement": "DiscoverX ß-arrestin recruitment pEC50", "setting": "[12]", "value": "8.7 [8.3 – 9.6]"}, {"measurement": "response at log[M] -5 (FigS4f)", "setting": "[12]; log[M] = -5, individual replicates", "value": "61.1792 and 63.739"}, {"measurement": "response at log[M] -5.47712 (FigS4f)", "setting": "[12]; log[M] = -5.47712, individual replicates", "value": "59.4535 and 60.8053"}, {"measurement": "response at log[M] -5.95424 (FigS4f)", "setting": "[12]; log[M] = -5.95424, individual replicates", "value": "62.531 and 63.2501"}, {"measurement": "response at log[M] -6.43136 (FigS4f)", "setting": "[12]; log[M] = -6.43136, individual replicates", "value": "63.3939 and 54.9092"}, {"measurement": "response at log[M] -6.90849 (FigS4f)", "setting": "[12]; log[M] = -6.90849, individual replicates", "value": "60.9779 and 60"}, {"measurement": "response at log[M] -7.38561 (FigS4f)", "setting": "[12]; log[M] = -7.38561, individual replicates", "value": "55.1393 and 55.8296"}, {"measurement": "response at log[M] -7.86273 (FigS4f)", "setting": "[12]; log[M] = -7.86273, individual replicates", "value": "45.8781 and 43.2321"}, {"measurement": "response at log[M] -8.33985 (FigS4f)", "setting": "[12]; log[M] = -8.33985, individual replicates", "value": "34.3448 and 36.6457"}, {"measurement": "response at log[M] -8.81697 (FigS4f)", "setting": "[12]; log[M] = -8.81697, individual replicates", "value": "21.5459 and 25.2274"}, {"measurement": "response at log[M] -9.29409 (FigS4f)", "setting": "[12]; log[M] = -9.29409, individual replicates", "value": "9.61 and 9.437"}, {"measurement": "EC50", "setting": "[12]; read-out: DiscoverX ß-arrestin recruitment EC50", "value": 2.3, "unit": "nM"}, {"measurement": "Emax", "setting": "[12]; read-out: DiscoverX ß-arrestin recruitment Emax", "value": 71, "unit": "%"}]}]}
